From patent publication US10696693B2, “Fused imidazole derivatives as TGF-beta inhibitors” (Rigel Pharmaceuticals, Inc., priority 2014, dated 2020)

Key:
TGF-β = test: AlphaScreen SureFire p-SMAD3 (Ser423/425) assay, TGF-β-stimulated cells; assay type: cell-based; details: Mus musculus; p-SMAD3 (Ser423/425) AlphaScreen in cell lysate; MPC-11; TGF-β stimulation; read-out: TGF-β: inhibition of TGF-β signaling, TGF-β pSMAD (MPC-11)
Procedure, shortened: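 The p-SMAD-3 (Ser423/425) SureFire assay measured phosphorylation of endogenous SMAD-3 in cell lysates. Cells were plated overnight in collagen-coated plates, exposed to three-fold serially diluted compounds for about 10 minutes, then stimulated with TGFβ. Lysates (5 μL) received acceptor bead mix for 2 hours, then donor beads for 1½ hours before AlphaScreen reading.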

GDF8 = test: AlphaScreen SureFire p-SMAD3 (Ser423/425) assay, GDF8-stimulated cells; assay type: cell-based; details: Mus musculus, MPC-11; p-SMAD3 (Ser423/425) AlphaScreen in cell lysate; MPC11; GDF8 stimulation; read-out: GDF8: inhibition of GDF8 signaling, GDF pSMAD (MPC11)
Procedure, shortened: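 Lysate (5 μL) went into 384-well shallow plates with 5 μL of Reaction Buffer, Activation Buffer and AlphaScreen Acceptor bead mix. Plates were sealed, kept dark and shaken for 2 hours at room temperature. Donor beads in dilution buffer (2 μL) were added for another 1½ hours, and p-SMAD3 signal was read on a Synergy-4 or Enspire reader.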

- IC50 (TGF-β): < 50 nM
- IC50 (GDF8): < 50 nM
Compound: OCC1Cn2c(nc(-c3cc(F)cc(F)c3F)c2-c2ccc3ncnn3c2)N1 (centres unmarked) [Compound 121, (5-([1,2,4]triazolo[1,5-a]pyridin-6-yl)-6-(2,3,5-trifluorophenyl)-2,3-dihydro-1H-imidazo[1,2-a]imidazol-2-yl)methanol]
